Experiments:
[1] = tested on: NCI-H1573; experiment: 3D cell viability (CTG); assay type: cell-based; settings: Homo sapiens; NCI-H1573, KRAS G12A, 3D culture
[2] = tested on: SW837; experiment: 3D cell viability (CTG); assay type: cell-based; settings: Homo sapiens; SW837, KRAS G12C, 3D culture
[3] = tested on: MIAPaCa-2; experiment: 3D cell viability (CTG); assay type: cell-based; settings: Homo sapiens, MIA PaCa-2; MIAPaCa-2, KRAS G12C, 3D culture
[4] = tested on: NCI-H1792; experiment: 3D cell viability (CTG); assay type: cell-based; settings: Homo sapiens; NCI-H1792, KRAS G12C, 3D culture
Procedure: (§2) To evaluate cell viability in 3D culture, cells in logarithmic growth phase were plated in growth medium containing 0.65% methylcellulose at an optimum seeding density. Cells were incubated overnight prior to treatment with different concentrations of the test article. Cells were cultured for an additional seven days and cell viability assessed using the CellTiterGlo™ (CTG) reagent, according to the manufacturer's instructions. In some instances, cells were grown in 3D culture as spheroids. Briefly, 2500 cells/well were seeded in round bottom ultra-low attachment 96-well plates (Corning) in growth media supplemented with 10% fetal bovine serum and 1% penicillin/streptomycin, and allowed to form spheroids for 72 hours at 37° C. in 5% CO2. […] Following drug exposure for five days, cell viability in spheroids was determined using the CellTiter-Glo assay kit. […] After one day in culture, cells were treated with the test article, which was then replenished every three days. Cells were maintained in culture for 10 days until the control wells reached confluency at which time the cells were fixed and stained with crystal violet.

[5] = tested on: Calu-1; experiment: 3D cell viability (CTG); assay type: cell-based; settings: Homo sapiens; Calu-1, KRAS G12C, 3D culture
[6] = tested on: HPAC; experiment: 3D cell viability (CTG); assay type: cell-based; settings: Homo sapiens, KRAS G12D, 3D culture
[7] = tested on: NCI-H727; experiment: 3D cell viability (CTG); assay type: cell-based; settings: Homo sapiens; NCI-H727, KRAS G12V, 3D culture
[8] = tested on: LoVo; experiment: 3D cell viability (CTG); assay type: cell-based; settings: Homo sapiens, KRAS G13D, 3D culture
Procedure: as §2

[9] = tested on: NCI-H1944; experiment: 3D cell viability (CTG); assay type: cell-based; settings: Homo sapiens; NCI-H1944, KRAS G13D, 3D culture
[10] = tested on: T84; experiment: 3D cell viability (CTG); assay type: cell-based; settings: Homo sapiens; T84, KRAS G13D, 3D culture
[11] = tested on: pERK in HEK293 cells expressing SOS-F; experiment: pERK analysis of HEK-293 SOS-WT and SOS-F; assay type: cell-based; settings: inducible expression of SOS-F
From the text: N-terminally HA-tagged SOS-WT and SOS-F constructs were synthesized (Atum) and subcloned into the pcDNA5/FRT/TO vector (ThermoFisher) using the following primers: SOS1-HA-F or 5′-[…]-3′ (SEQ ID NO: 1), SOS1-HA-REV 5′-[…]-3′ (SEQ ID NO: 2), and SOS-F-HA-REV 5′-[…]-3′ (SEQ ID NO: 3). SOS-WT and SOS-F plasmids were co-transfected with the pOG44 Flp-recombinase expression vector (ThermoFisher) into the HEK Flp-In T-Rex 293 cell line according to the manufacturer's protocol. Transfected cells were selected in drug media (200 μg/mL hygromycin B, 15 μg/mL blastidicin) and expression of SOS constructs was verified by western blot (SOS-1: Cell Signaling Technologies #5890; HA: Sigma 11867423001).
30,000 HEK-293 cells per well were plated in 96-well plates in Biotin-free RPMI (Hyclone) supplemented with 0.1% fetal bovine serum, 0.02% bovine serum albumin and 1% penicillin/streptomycin. Expression of SOS1 constructs was induced by the addition 0.1 μg/mL doxycycline (Sigma) for 24 hours. […] For the final 5 minutes of drug treatment, cells were stimulated with 50 ng/mL EGF (Sigma), lysed and subjected to ERK1/2 phosphorylation analysis as described above.

[12] = tested on: RAS-GTP in A549 cells; experiment: RAS-GTP pulldown (Raf-RBD); assay type: cell-based; settings: A549 (KRAS G12S), 6 hour and 24 hour
Procedure: To determine the effects of small molecules on levels of activated RAS-GTPase, cell lines of interest were cultured under standard 2D culture conditions. Cells were seeded and following overnight incubation incubated at 37° C. with vehicle (DMSO) or test article(s). After an appropriate incubation period, cells were washed and cell lysis buffer added to prepare a cell lysate. The levels of Ras-GTP in the lysates were determined using affinity purification of a Raf-RBD (Ras binding domain of Raf)/GTP-Ras complex. In one approach, the Pierce Active Ras Pulldown and Detection Kit was used. Briefly, clarified lysates (500 μg total protein, quantified by BCA) were mixed with glutathione resin which had been preincubated with GST-Raf-RBD. The mixture was vortexed and incubated at 4° C. for 1 hour with gentle rocking. The resin was washed three times with lysis buffer and bound Ras-GTP eluted by addition of 2× reducing sample buffer. Eluted proteins were separated by SDS-PAGE using a 4-15% Tris-glycine gel (BioRad). Proteins were transferred to a nitrocellulose membrane for western blot using an anti-Ras antibody (Thermofisher, 1:200) and a Licor IRDye-800 anti-mouse secondary antibody (1:20,000). The Licor Odyssey CLx was used for visualization.

[13] = tested on: NF1 LOF cell lines; settings: 3D culture, CTG Day 7
Procedure: (§1) To evaluate cell viability in 3D culture, cells in logarithmic growth phase were plated in growth medium containing 0.65% methylcellulose at an optimum seeding density. Cells were incubated overnight prior to treatment with different concentrations of the test article. Cells were cultured for an additional seven days and cell viability assessed using the CellTiterGlo™ (CTG) reagent, according to the manufacturer's instructions. In some instances, cells were grown in 3D culture as spheroids. Briefly, 2500 cells/well were seeded in round bottom ultra-low attachment 96-well plates (Corning) in growth media supplemented with 10% fetal bovine serum and 1% penicillin/streptomycin, and allowed to form spheroids for 72 hours at 37° C. in 5% CO2. […] Following drug exposure for five days, cell viability in spheroids was determined using the CellTiter-Glo assay kit. H1838 cells were seeded at 5×10^3 cells per well of a 12-well plate. After one day in culture, cells were treated with the test article, which was then replenished every three days.

[14] = tested on: YUHEF melanoma cell line; settings: YUHEF (NF1 Q853*/FS-indel), 3D culture
Procedure: as §1

[15] = tested on: H358 KRas G12C xenograft; experiment: NSCLC H358 xenograft, athymic nude mice; assay type: in vivo; settings: oral administration
Procedure: Compound A or Compound B were administered by oral gavage daily. The positive control, paclitaxel (30 mg/kg iv) in 5% ethanol, 5% cremophor EL, in 5% dextrose in deionized water was administered once every five days. Trametinib (1 mg/kg PO in 0.5% Methylcellulose+0.5% Tween 80) was administered by oral gavage daily. The study endpoint was defined as a mean tumor volume of 2000 mm^3 in the control group or 22 days, whichever came first. Mean tumor volume data are reported for all animals that remained on study.

SMILES	IC50 [1]	IC50 [2]	IC50 [3]	IC50 [4]	IC50 [5]	IC50 [6]	IC50 [7]	IC50 [8]	IC50 [9]	IC50 [10]	sensitivity of pERK signaling to SHP2 inhibition [11]	RAS-GTP accumulation resulting from MEK inhibition by trametinib [12]	NF1 LOF cell lines whose proliferation exhibited sensitivity [13]	effect on proliferation [14]	tumor volume [15]
Nc1nc(N2CCC3(CCC[C@H]3N)CC2)cnc1Sc1ccnc(Cl)c1Cl [Compound A]	0.2 µM	0.3 µM	0.3 µM	1.2 µM	> 10 µM	> 10 µM	0.3 µM	> 10 µM	> 10 µM	> 10 µM	–	–	–	–	–
Cc1nc(N2CCC3(CC2)CO[C@@H](C)[C@H]3N)c(CO)nc1-c1cccc(Cl)c1Cl [Compound B]	–	–	–	–	–	–	–	–	–	–	insensitive	suppressed	3/4	No effect	dose-dependent decrease
